The test concerns the target T1, human SGLT2 (Homo sapiens, UniProt P31639).
T1 construct: expressed in transfected cells
T1 sequence (P31639 1-672): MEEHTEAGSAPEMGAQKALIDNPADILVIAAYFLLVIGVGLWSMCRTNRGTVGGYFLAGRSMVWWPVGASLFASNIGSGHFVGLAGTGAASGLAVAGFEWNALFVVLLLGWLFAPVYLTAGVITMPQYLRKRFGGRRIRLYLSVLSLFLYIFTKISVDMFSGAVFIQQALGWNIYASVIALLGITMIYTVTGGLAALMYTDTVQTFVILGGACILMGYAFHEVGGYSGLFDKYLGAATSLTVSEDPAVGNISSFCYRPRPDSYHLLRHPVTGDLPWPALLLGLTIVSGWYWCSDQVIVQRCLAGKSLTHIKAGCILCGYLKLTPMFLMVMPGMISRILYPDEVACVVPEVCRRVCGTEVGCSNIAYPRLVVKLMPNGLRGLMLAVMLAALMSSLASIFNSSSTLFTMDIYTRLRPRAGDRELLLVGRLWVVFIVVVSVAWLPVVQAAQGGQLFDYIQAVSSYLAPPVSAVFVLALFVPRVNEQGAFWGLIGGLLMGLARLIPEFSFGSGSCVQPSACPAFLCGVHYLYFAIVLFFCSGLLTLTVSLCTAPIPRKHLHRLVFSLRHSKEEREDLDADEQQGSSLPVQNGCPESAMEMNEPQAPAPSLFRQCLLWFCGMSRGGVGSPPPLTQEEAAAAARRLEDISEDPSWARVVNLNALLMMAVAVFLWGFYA
In words: Assay for inhibitory effects on human SGLT2 activity (uptake of methyl-α-D-glucopyranoside in CS2-5E cells). The format is cell-based. As to conditions: inhibition of 14C-labeled α-MG uptake (1 mM), CHO-K1 cells stably expressing human SGLT2 (CS2-5E), 37° C., 1 hour. On the procedure: Assay for Inhibitory Effects on Human SGLT2 Activity 1) Cloning and Construction of the Vector Expressing Human SGLT2 The cDNA library was prepared for PCR amplification by reverse transcription from total RNA deprived from human kidney (Ori gene) using oligo-dT as a primer. Using this cDNA library as a template, the DNA fragment coding 2 to 2039 bp of human SGLT2 (ACCESSION: M95549, M95299), which was reported by R. G. Wells et al., was amplified by PCR method and inserted into the multi-cloning site of pcDNA3.1 (−) (Invitrogen). The DNA sequence inserted was perfectly matched to the previously reported sequence. 2) Establishment of Cell Line Stably Expressing Human SGLT2 The expression vector of human SGLT2 was digested by Sca I into a linear DNA. The linear DNA was transfected into CHO-K1 cells by means of lipofection (Effectene Transfection Reagent: QIAGEN). Neomycin resistant cell lines were selected by culture in the medium containing G418 (1 mg/mL, LIFE TECHNOLOGIES), and then the activity against the uptake of methyl-α-D-glucopyranoside was measured by the method described below. […] Radioactivity was measured by means of micro-scintillation counter TopCount (Packard). One hundred % was set to the difference between the uptake in the control group and the basal uptake, and the uptake of methyl α-D-glucopyranoside at each drug concentration were calculated. […]

pIC50: −log10 of the molar value.

By pIC50 is commonly meant −log10 of the IC50, conventionally taken in molar units. The low end stands for a high IC50, the high end for a low IC50. Compound `COc1ccc(Cc2ccccc2O[C@@H]2O[C@H](CF)[C@@H](O)[C@H](O)[C@H]2O)cc1` [Example 1, 2-(4-Methoxybenzyl)phenyl 6-deoxy-6-fluoro-β-D-glucopyranoside] showed a pIC50 of 7.07.
